Results: patent publication US20150315202A1, “CHLORIN DERIVATIVE USEFUL IN PHOTODYNAMIC THERAPY AND DIAGNOSIS” (RMW CHO GROUP LIMITED, priority 2012, published 2015)

Columns and labels:
[1] = system: brain cancer with metastases in the lung and lymph nodes; experiment: In vivo studies Example 12: patient, oral chlorin e4 sodium plus laser and LED light; parameters: species or system human; settings: after two courses
Method: A patient with brain cancer with metastases in the lung and lymph nodes, was treated successfully. […] The patient experienced occasional epileptic seizures and severe headaches. The treatment consisted of two courses. For each course, five doses of 62.5-187.5 mg chlorin e4 sodium were administered orally over the course of eight days. 24-48 hours after each oral dose of chlorin e4 sodium, the patient was treated with laser and LED light having a wavelength of 660 nm and 760 nm.

[2] = system: advanced non-small cell lung cancer; experiment: Clinical study with patients suffering from advanced non-small cell lung cancer; type: in vivo, human
Method: Through pathology or cytology diagnosis, 66 advanced non-small cell lung cancer patients were selected and randomly divided into two groups. Group A had 32 patients who were treated with chlorin e4 sodium. Group B had 34 patients who were treated with both chemotherapy and radiotherapy.
For group A, chlorin e4 sodium was administered at a dosage of 2 mg per kilogram of body weight, with two thirds administered by inhalation and one third administered orally. After the irradiation target(s) had been determined, an optical fibre for laser treatment purposes was guided into the lung tumor(s) via an interstitial procedure. Irradiation light intensity was 200 J/cm^2, irradiation power was 1,000 mW, and irradiation lasted for eight to ten minutes. Laser irradiation into the tumor was two to five centimeters in depth. Irradiation was either performed phase by phase (sub-paragraph treatment) based on tumor size or performed repeatedly.
For group B, for the radiotherapy, a 15 MV X-ray radiation therapy irradiation field covered primary lung tumor lesion(s) and mediastinal lymphatic drainage area, with a dosage of 65-70 Gy, administered on every first day in a week of radiotherapy. For the chemotherapy, 20 mg cisplatin was administered by intravenous application.

S180 sarcoma = experiment: Photodynamic therapy study with mice with subcutaneous S180 sarcoma; type: in vivo, Kunming mice
Method: In this experiment the effects of photodynamic therapy mediated by three different photosensitizers, namely Duteroporphyrin, chlorin e4 sodium and 5-ALA, on mouse S180 sarcoma were observed. Duteroporphyrin and 5-ALA are porphyrin derivatives.
40 Kunming mice with well grown subcutaneous S180 sarcoma were randomly divided into four groups: (A) Duteroporphyrin group (10 mg/kg), (B) chlorin e4 sodium group (20 mg/kg), (C) 5-ALA group (100 mg/kg) and (D) blank control group. The mice in groups A and B were subjected to irradiation 8-10 hours after tail vein injection of the photo sensitizers, while the mice in group C were subjected to irradiation 3 hours after tail vein injection of the photosensitizer. A laser with a wavelength of 630 nm was used for groups A and C, while a duel-frequency laser with wavelengths of 660 nm and 760 nm was used for group B. The local tumour sites were irradiated vertically, with the diameter of the laser spots being 1.2-1.5 cm. The whole tumour and 3-5 mm of normal tissue around the tumour were covered by the laser. The lasers were applied to groups A, B and C for 20 minutes, with a power density of 150 mW/cm^2 and an energy density of 180 J/cm^2. The mice in control group D were not subjected to irradiation.

[3] = group A (32 patients): chlorin e4 sodium 2 mg/kg inhalation and oral + interstitial laser, group B (34 patients): cisplatin 20 mg iv + radiotherapy
[4] = 21 days after the treatments, P<0.05

C=Cc1c(C)c2cc3nc(c(C)c4[nH]c(cc5nc(cc1[nH]2)C(C)=C5CC)c(C)c4C(=O)O)[C@@H](CCC(=O)O)[C@@H]3C [chlorin e4 sodium]
Lymph nodes (PET/CT) [1]: not yet clear
Metabolic activity in the area of the brain tumour (PET/CT) [1]: no metabolic activity
Response in the lungs (PET/CT) [1]: complete response
One year survival rate [2, 3]: 93.75%
Two years survival rate [2, 3]: 68.75%
Combined complete and partial remission rate ([2]; group A: chlorin e4 sodium 2 mg/kg + interstitial laser, group B: cisplatin 20 mg iv + radiotherapy): 56.20%
Pathological changes of tumour tissues (HE staining) (S180 sarcoma; 24 hours after the treatment): a wide range of tumour necrosis, tumour vascular disruption and neutrophil infiltration
Living tumour cells versus control group D (FCM) (S180 sarcoma; 24 hours after treatments): obviously fewer
Proportions of apoptotic and necrotic tumour cells versus control group D (FCM) (S180 sarcoma; 24 hours after treatments): a lot higher
Mean tumour volume versus control group D (S180 sarcoma; [4]): statistically significantly smaller
Mean tumour volume, group B versus group C (5-ALA) (S180 sarcoma; [4]): statistically significantly smaller in group B than group C
Tumour appearance after treatment (eschars) (S180 sarcoma; after treatments): Black eschars
Recovery of skins and fur (S180 sarcoma; mouse, in vivo): fully recovered
Sizes of tumours versus control group D (S180 sarcoma; six days after the treatments): no obvious difference
Therapeutic effect compared with 5-ALA (S180 sarcoma; summary of study, P<0.05): statistically significantly better therapeutic effect
Tumour inhibition rate (S180 sarcoma; tail vein: Duteroporphyrin 10 mg/kg, chlorin e4 sodium 20 mg/kg, 5-ALA 100 mg/kg, laser 20 minutes, 180 J/cm^2): 75.4%
